Experimental data as given in ChEMBL document CHEMBL1127298, “Bis-catechol-substituted redox-reactive analogues of hexamethonium and decamethonium: stimulated affinity-dependent reactivity through iron peroxide catalysis” (J Med Chem, 1994).

Tests used:
Acetylcholine receptor [1] = target: T1, Acetylcholine receptor (Torpedo californica, UniProt P02710+P02712+P02714+P02718); assay: Binding affinity against nicotinic acetylcholine receptor (nAChR); format: protein-complex assay, Tetronarce californica
T1 sequence (P02710 whole entry): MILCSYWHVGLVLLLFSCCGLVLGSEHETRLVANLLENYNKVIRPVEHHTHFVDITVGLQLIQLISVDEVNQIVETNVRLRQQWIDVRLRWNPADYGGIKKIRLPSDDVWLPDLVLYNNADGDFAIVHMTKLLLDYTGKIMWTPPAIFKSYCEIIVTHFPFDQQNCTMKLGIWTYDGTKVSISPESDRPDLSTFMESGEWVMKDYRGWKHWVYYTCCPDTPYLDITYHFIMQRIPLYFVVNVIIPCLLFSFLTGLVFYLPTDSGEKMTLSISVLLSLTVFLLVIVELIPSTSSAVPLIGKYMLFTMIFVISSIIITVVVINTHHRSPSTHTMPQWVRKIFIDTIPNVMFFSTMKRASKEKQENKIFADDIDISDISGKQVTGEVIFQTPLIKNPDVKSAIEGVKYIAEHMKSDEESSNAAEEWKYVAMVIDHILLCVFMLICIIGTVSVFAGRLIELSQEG
T1 sequence (P02712 whole entry): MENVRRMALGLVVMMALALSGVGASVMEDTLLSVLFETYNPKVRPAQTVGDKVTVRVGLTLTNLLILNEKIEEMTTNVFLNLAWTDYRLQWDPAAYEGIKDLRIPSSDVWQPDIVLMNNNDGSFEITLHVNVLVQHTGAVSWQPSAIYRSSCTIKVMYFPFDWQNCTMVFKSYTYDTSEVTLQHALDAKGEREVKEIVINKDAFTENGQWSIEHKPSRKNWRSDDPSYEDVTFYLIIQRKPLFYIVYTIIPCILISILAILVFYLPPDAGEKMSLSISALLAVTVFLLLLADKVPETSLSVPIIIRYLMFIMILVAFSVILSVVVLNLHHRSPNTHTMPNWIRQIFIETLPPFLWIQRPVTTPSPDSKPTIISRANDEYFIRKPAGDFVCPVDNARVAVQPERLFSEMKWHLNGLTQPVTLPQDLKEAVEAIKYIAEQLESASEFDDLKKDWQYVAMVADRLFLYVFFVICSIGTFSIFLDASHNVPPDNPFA
T1 sequence (P02718 whole entry): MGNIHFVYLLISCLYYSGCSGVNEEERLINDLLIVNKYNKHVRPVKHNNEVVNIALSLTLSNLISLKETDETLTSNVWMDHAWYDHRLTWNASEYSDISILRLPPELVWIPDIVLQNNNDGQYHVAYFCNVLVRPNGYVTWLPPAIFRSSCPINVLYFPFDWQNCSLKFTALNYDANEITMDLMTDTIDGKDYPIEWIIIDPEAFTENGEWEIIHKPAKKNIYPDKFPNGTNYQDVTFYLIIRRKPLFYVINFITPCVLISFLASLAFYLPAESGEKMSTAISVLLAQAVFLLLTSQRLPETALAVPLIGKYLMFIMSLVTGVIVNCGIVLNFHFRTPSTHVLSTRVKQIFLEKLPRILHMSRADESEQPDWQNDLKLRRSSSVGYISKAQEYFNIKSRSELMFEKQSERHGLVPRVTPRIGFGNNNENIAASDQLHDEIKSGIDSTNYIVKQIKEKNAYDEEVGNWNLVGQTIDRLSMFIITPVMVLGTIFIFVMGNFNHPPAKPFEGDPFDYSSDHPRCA
T1 sequence (P02714 whole entry): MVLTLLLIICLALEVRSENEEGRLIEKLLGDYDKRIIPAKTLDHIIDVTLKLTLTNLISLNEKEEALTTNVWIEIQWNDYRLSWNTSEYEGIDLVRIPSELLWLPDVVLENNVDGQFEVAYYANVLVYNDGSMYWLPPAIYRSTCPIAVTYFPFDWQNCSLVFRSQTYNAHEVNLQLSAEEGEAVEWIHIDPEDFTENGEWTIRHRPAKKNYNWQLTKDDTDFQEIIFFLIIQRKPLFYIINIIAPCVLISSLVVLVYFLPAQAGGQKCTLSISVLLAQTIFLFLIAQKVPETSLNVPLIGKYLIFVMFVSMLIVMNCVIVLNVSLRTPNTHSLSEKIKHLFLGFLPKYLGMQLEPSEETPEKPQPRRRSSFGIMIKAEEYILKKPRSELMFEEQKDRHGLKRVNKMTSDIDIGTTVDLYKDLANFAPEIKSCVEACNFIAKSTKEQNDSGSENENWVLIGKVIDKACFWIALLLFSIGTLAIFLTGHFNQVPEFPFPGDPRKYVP

Acetylcholine receptor [2] = target: T1, Acetylcholine receptor; assay: Compound was evaluated for the binding constant for association with nicotinic acetylcholine receptor (nAChR); format: protein-complex assay, Tetronarce californica

SMILES	Ki (Acetylcholine receptor [1]) [nM]	Kd (Acetylcholine receptor [2]) [nM]
C[N+](C)(CCCCCC[N+](C)(C)Cc1cccc(O)c1O)Cc1cccc(O)c1O	18	18
C[N+](C)(CCCCCCCCCC[N+](C)(C)Cc1cccc(O)c1O)Cc1cccc(O)c1O	–	230
C[N+](C)(C)Cc1cccc(O)c1O	28000	–
C[N+](C)(C)CCCCCC[N+](C)(C)C [HEXAMETHONIUM BROMIDE]	–	18
